Experimental data as given in patent US20040152106A1, “Gene necessary for striatal function, uses thereof, and compounds for modulating same” (priority 1999, published 2004).

Columns and labels:
[1] = tested on: Huntington's disease patient; test: Clinical use of PDE10A modulator in a Huntington's disease patient (case report); type: in vivo, human; conditions: 200 mg twice daily resumed after 7 days of suspension
Protocol: A person was admitted to hospital from a long-term care facility due to progressive deterioration of their physical and mental symptoms caused by Huntington's disease. The patient had been diagnosed with Huntington's disease. Prior to admission to the hospital, they had become increasingly aggressive and uncooperative. Moreover, there appeared to be an increase in the number of psychotic episodes. […] The patient had been stable for a number of years on the antipsycotic haloperidol (3 mg/day). For the last two years, the haloperidol had been replaced by olanzapine (2.5-7.5 mg/day). Minocycline, a tetracycline derivative, was administered at 50 mg twice daily for 7 days, followed by 100 mg twice daily for 7 days and finally 200 mg twice daily for 5 weeks. […] The minocycline treatment was suspended for 7 days. […] Minocycline (200 mg twice daily) treatment will continue indefinitely. The improvement in behaviour and decrease in apparent psychosis has allowed for the transfer of the patient from the acute care facility back to long-term care.

PDE10A = molecular target: T1, PDE10A (Mus musculus, UniProt Q8CA95); conditions: among inhibitors tested on PDE10A; cited from earlier work
T1 sequence (Q8CA95 1-779 isoform Q8CA95-2): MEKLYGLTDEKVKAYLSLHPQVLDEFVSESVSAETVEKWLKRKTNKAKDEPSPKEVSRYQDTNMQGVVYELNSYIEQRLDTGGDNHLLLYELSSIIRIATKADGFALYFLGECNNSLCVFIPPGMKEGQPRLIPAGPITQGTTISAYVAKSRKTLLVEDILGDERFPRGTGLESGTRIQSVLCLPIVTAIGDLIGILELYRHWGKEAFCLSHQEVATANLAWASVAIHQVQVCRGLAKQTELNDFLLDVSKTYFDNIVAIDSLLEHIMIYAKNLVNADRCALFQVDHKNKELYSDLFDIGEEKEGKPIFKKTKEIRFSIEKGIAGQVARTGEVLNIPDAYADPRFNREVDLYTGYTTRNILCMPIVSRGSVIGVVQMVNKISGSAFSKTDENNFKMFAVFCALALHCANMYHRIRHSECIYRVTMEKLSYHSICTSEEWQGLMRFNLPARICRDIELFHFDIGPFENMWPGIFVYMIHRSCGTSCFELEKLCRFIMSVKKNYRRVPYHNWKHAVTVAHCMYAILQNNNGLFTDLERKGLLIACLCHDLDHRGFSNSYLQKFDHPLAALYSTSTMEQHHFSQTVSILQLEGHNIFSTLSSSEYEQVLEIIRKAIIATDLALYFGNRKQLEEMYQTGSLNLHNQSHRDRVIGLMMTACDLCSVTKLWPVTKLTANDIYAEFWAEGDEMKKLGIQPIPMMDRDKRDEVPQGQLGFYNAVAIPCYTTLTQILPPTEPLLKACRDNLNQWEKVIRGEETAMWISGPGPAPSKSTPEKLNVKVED

| SMILES | time to response after resumed treatment [1] | potency as inhibitor of PDE10A activity (PDE10A) |
| --- | --- | --- |
| CN(C)c1ccc(O)c2c1C[C@H]1C[C@H]3[C@H](N(C)C)C(O)=C(C(N)=O)C(=O)[C@@]3(O)C(O)=C1C2=O [Minocycline] | ≤ 3 days | – |
| CN1C(=O)c2[nH]c(Cc3ccc(C(F)(F)F)cc3)nc2N2C1=N[C@@H]1CCC[C@@H]12 [SCH 51866] | – | highest potency |
| OCCN(CCO)c1nc(N2CCCCC2)c2nc(N(CCO)CCO)nc(N3CCCCC3)c2n1 [Dipyridamole] | – | highest potency |
| CC(C)Cn1c(=O)n(C)c(=O)c2[nH]cnc21 [IBMX] | – | potent inhibitor |
